Data taken from patent publication US9932637B2, “Genetic polymorphisms associated with cardiovascular disorders and drug response, methods of detection and uses thereof” (CELERA CORPORATION, priority 2003, dated 2018).
Several values for one entry are separate records, joined by “and”; a condition that tells them apart may be missing. Equal values may be shown once.

Tested on: patients with prior myocardial infarction (CARE study)
Assay: CARE aligned analysis (prospective and case/control design, white males): association of genotypes with pravastatin efficacy (Tables 13, 15)
Assay type: in vivo, human
Procedure: The data presented in Table 8 based on an association of genotypes with pravastatin efficacy of the CARE samples were further analyzed and presented in Table 13. The further analysis was performed to align the data obtained from the analysis of the CARE samples, which was a prospective study, to the analysis of the WOSCOP samples, which was a case/control study. Table 13 also presents an analysis of the association of genotypes with pravastatin efficacy in the WOSCOPs samples. Relative to the analysis performed on the data presented in Table 8, there are two significant differences to determine if the SNP influenced pravastatin efficacy. Data obtained from the CARE samples were separated by study design into two groups, those in the prospective study design group and those in the case/control study design group. The original care study contained 16 protocol defined cardiovascular disease defined endpoints and 150 other phenotypes. […] The control groups used to compare the data were also divided into two groups, the “all possible” control group and the “cleaner” control group. […] Because the participants in the WOSCOPs trial were all white males, only data obtained from white males in the CARE study were analysed. Data from the “all possible” and “cleaner” controls were compared to data obtained from the cases in the prospective study design while only data from “cleaner” controls were compared to cases in the case/control study design. The data from the case/control cohorts were analysed using conditional logistic regression (as opposed to logistic regression used for the original anaylsis).
The anaylsis was refined as described for both Tables 13 and 14.

[1] = A2M hCV517658, CARE Case/Control, F&NF MI
[2] = ABCA1 hCV2741051, CARE Case/Control, F&NF MI
[3] = ABCA1 hCV2741051, CARE Prospective, F&NF MI
[4] = ABCA1 hCV2741083, CARE Prospective, F&NF MI
[5] = ADAM12 hCV25928135, CARE Case/Control, F&NF MI
[6] = AGTR1 hCV3187716, CARE, Case/Control, F MI/SD/NF MI
[7] = AGTR1 hCV3187716, CARE, Prospective, F MI/SD/NF MI
[8] = ALOX12 hCV1552894, CARE Prospective, F&NF MI
[9] = ALOX12 hCV1552900, CARE Prospective, F&NF MI
[10] = ASAH1 hCV2442143, CARE, Prospective, F MI/SD/NF MI
[11] = C14orf159 hCV25472345, CARE Case/Control, F&NF MI
[12] = C14orf159 hCV25472345, CARE Prospective, F&NF MI
[13] = CAPG hCV15851292, CARE, Case/Control, F MI/SD/NF MI
[14] = CAPN10 hCV25614016, CARE, Case/Control, F MI/SD/NF MI, listed as Pravastatin
[15] = CAPN10 hCV25614016, CARE, Prospective, F MI/SD/NF MI

SMILES: CC[C@H](C)C(=O)O[C@H]1C[C@H](O)C=C2C=C[C@H](C)[C@H](CC[C@@H](O)C[C@@H](O)CC(=O)O)[C@H]21 [pravastatin]
- 2 Rare Alleles (%), Pravastatin Patients [1]: (7.6%)
- 2 Rare Alleles n/total, Pravastatin Patients [1]: 11/144 and 11/101
- Pravastatin vs placebo odds ratio, 0 rare alleles [1]: 0.55 and 0.53
- Pravastatin vs placebo odds ratio, 1 rare allele [1]: 1.04 and 0.93
- Pravastatin vs placebo odds ratio, 2 rare alleles [1]: 0.47 and 0.38
- 2 Rare Alleles n/total, Pravastatin Patients [2]: 12/93 and 12/64
- Pravastatin vs placebo odds ratio, 0 rare alleles [2]: 0.55 and 0.52
- Pravastatin vs placebo odds ratio, 1 rare allele [2]: 0.98 and 0.82
- Pravastatin vs placebo odds ratio, 2 rare alleles [2]: 1.71 and 1.81
- 2 Rare Alleles n/total, Pravastatin Patients [3]: 12/94 and 12/65
- Pravastatin vs placebo odds ratio, 0 rare alleles [3]: 0.55 and 0.52
- Pravastatin vs placebo odds ratio, 1 rare allele [3]: 0.99 and 0.83
- Pravastatin vs placebo odds ratio, 2 rare alleles [3]: 1.80 and 1.81
- 2 Rare Alleles n/total, Pravastatin Patients (ABCA1 hCV2741083, CARE Case/Control, F&NF MI): 4/22 and 4/18
- 2 Rare Alleles n/total, Pravastatin Patients [4]: 4/23 and 4/19
- Pravastatin vs placebo odds ratio, 0 rare alleles [4]: 0.63
- Pravastatin vs placebo odds ratio, 1 rare allele [4]: 1.52
- Pravastatin vs placebo odds ratio, 2 rare alleles [4]: 2.74
- Pravastatin vs. Placebo Odds Ratio (ABCA1 hCV2741083, Patients with 0 Rare Alleles, CARE Case/Control, F MI/SD/NF MI): 0.60
- Pravastatin vs. Placebo Odds Ratio (ABCA1 hCV2741083, Patients with 0 Rare Alleles, CARE Prospective, F MI/SD/NF MI): 0.59
- Pravastatin vs. Placebo Odds Ratio (ABCA1 hCV2741083, Patients with 1 Rare Allele, CARE Case/Control, F MI/SD/NF MI): 1.53
- Pravastatin vs. Placebo Odds Ratio (ABCA1 hCV2741083, Patients with 1 Rare Allele, CARE Prospective, F MI/SD/NF MI): 1.61
- Pravastatin vs. Placebo Odds Ratio (ABCA1 hCV2741083, Patients with 2 Rare Alleles, CARE Case/Control, F MI/SD/NF MI): 0.71
- Pravastatin vs. Placebo Odds Ratio (ABCA1 hCV2741083, Patients with 2 Rare Alleles, CARE Prospective, F MI/SD/NF MI): 0.53
- 2 Rare Alleles (%), Pravastatin Patients [5]: (17.1%)
- 2 Rare Alleles n/total, Pravastatin Patients [5]: 7/58 and 7/41
- Pravastatin vs placebo odds ratio, 2 rare alleles [5]: 0.47 and 0.37
- Pravastatin vs. Placebo Odds Ratio (ADAMTS1 hCV529706, Patients with 0 Rare Alleles, CARE Case/Control, F MI/SD/NF MI): 0.91
- Pravastatin vs. Placebo Odds Ratio (ADAMTS1 hCV529706, Patients with 1 Rare Allele, CARE Case/Control, F MI/SD/NF MI): 0.64
- Pravastatin vs. Placebo Odds Ratio (ADAMTS1 hCV529706, Patients with 2 Rare Alleles, CARE Case/Control, F MI/SD/NF MI): 0.20
- Pravastatin vs. Placebo Odds Ratio (ADAMTS1 hCV529710, Patients with 0 Rare Alleles, CARE Case/Control, F MI/SD/NF MI): 0.91
- Pravastatin vs. Placebo Odds Ratio (ADAMTS1 hCV529710, Patients with 1 Rare Allele, CARE Case/Control, F MI/SD/NF MI): 0.63
- Pravastatin vs. Placebo Odds Ratio (ADAMTS1 hCV529710, Patients with 2 Rare Alleles, CARE Case/Control, F MI/SD/NF MI): 0.20
- 2 rare alleles n/total (%), pravastatin patients [6]: (7.5%)
- Pravastatin vs placebo odds ratio, 0 rare alleles [6]: 0.65
- Pravastatin vs placebo odds ratio, 1 rare allele [6]: 1.03
- Pravastatin vs placebo odds ratio, 2 rare alleles [6]: 0.26
- 2 rare alleles n/total (%), pravastatin patients [7]: (7.2%)
- Pravastatin vs placebo odds ratio, 0 rare alleles [7]: 0.65
- Pravastatin vs placebo odds ratio, 1 rare allele [7]: 1.02
- Pravastatin vs placebo odds ratio, 2 rare alleles [7]: 0.23
- Pravastatin vs. Placebo Odds Ratio (AGTR1 hCV3187716, Patients with 0 Rare Alleles, CARE Prospective, F MI/SD/NF MI): 0.70
- Pravastatin vs. Placebo Odds Ratio (AGTR1 hCV3187716, Patients with 1 Rare Allele, CARE Prospective, F MI/SD/NF MI): 1.18
- Pravastatin vs. Placebo Odds Ratio (AGTR1 hCV3187716, Patients with 2 Rare Alleles, CARE Prospective, F MI/SD/NF MI): 0.27
- 2 Rare Alleles (%), Pravastatin Patients [8]: (7.6%)
- 2 Rare Alleles n/total, Pravastatin Patients [8]: 15/198
- Pravastatin vs placebo odds ratio, 2 rare alleles [8]: 0.38
- 2 Rare Alleles (%), Pravastatin Patients [9]: (7.6%)
- 2 Rare Alleles n/total, Pravastatin Patients [9]: 15/198
- Pravastatin vs placebo odds ratio, 2 rare alleles [9]: 0.38
- 2 rare alleles n/total (%), pravastatin patients [10]: (13.2%)
- Pravastatin vs placebo odds ratio, 0 rare alleles [10]: 0.42
- Pravastatin vs placebo odds ratio, 1 rare allele [10]: 0.78
- Pravastatin vs placebo odds ratio, 2 rare alleles [10]: 1.16
- 2 Rare Alleles (%), Pravastatin Patients [11]: (5.0%)
- 2 Rare Alleles n/total, Pravastatin Patients [11]: 7/140
- Pravastatin vs placebo odds ratio, 2 rare alleles [11]: 0.30
- 2 Rare Alleles (%), Pravastatin Patients [12]: (5.0%)
- 2 Rare Alleles n/total, Pravastatin Patients [12]: 7/140
- Pravastatin vs placebo odds ratio, 2 rare alleles [12]: 0.30
- 2 rare alleles n/total (%), pravastatin patients [13]: (21.4%)
- Pravastatin vs placebo odds ratio, 0 rare alleles [13]: 0.81
- Pravastatin vs placebo odds ratio, 1 rare allele [13]: 0.37
- Pravastatin vs placebo odds ratio, 2 rare alleles [13]: 5.35
- Pravastatin vs placebo odds ratio, 2 rare alleles (CAPN10 hCV25614016, CARE, Case/Control, F MI/SD/NF MI): 0.90
- Pravastatin vs placebo odds ratio, 0 rare alleles [14]: 0.62 and 0.56
- Pravastatin vs placebo odds ratio, 1 rare allele [14]: 1.58 and 1.43
- Pravastatin vs placebo odds ratio, 2 rare alleles [14]: 1.07
- 2 rare alleles n/total (%), pravastatin patients [15]: (9.1%)
- Pravastatin vs placebo odds ratio, 0 rare alleles [15]: 0.63 and 0.56
- Pravastatin vs placebo odds ratio, 1 rare allele [15]: 1.60 and 1.42
